Test results as given in US20220257698A1, “ANGIOTENSIN TYPE 2 (AT2) RECEPTOR AGONISTS FOR USE IN THE TREATMENT OF CANCER” (LANTHIOPEP B.V., priority 2019, published 2022).

Experiments:
[1] = system: lung carcinoma PDX Lu7433; assay: KcAng(1-7) on growth of lung carcinoma PDX Lu7433 in mice; type: in vivo, NMRI nu/nu mice (human PDX)
Procedure: In vivo studies were conducted at EPO GmbH Berlin. Large studies (FIG. 1A, 2, 3, 4, 5) comprised 3 groups of 10 mice/group and 5 animals as reserve, as outlined in Table 1. Smaller studies (FIG. 1B, 1C, 1D) comprised 2 groups of mice of 3 mice per group. The animals were allocated to the various treatment groups (e.g. 0.2 μg/kg and 30 μg/kg) with a maximum of 10 animals per group. […] The groups received subcutaneous (s.c.) drug injection (for max. 28 days) as outlined in the Table 1.
NMRI nu/nu mice were used in this study. The animals were female at age of 6 to 8 weeks. The respective PDX tumors were inoculated subcutaneously (s.c.), and the tumors were grown to achieve palpable tumor sizes before start of the respective treatments. The PDX included breast (MaCa4151), colon (Co9689A), head & neck (HN10309), lung (Lu7433) and ovarian (OvCa13329) cancer (Table 2).
Treatment with KcAng(1-7) was started with palpable tumors after the randomization of animals regarding tumor volume. KcAng(1-7) was applied s.c. by daily injections at […] or 30 μg/kg dose for a maximum of 28 days (or earlier as defined by the humane end point for the study).
KcAng(1-7) was prepared as follows: The compounds was suspended in sterile PBS resulting in a clear solution. The remains of this formulation were stored at 4° C.
Tumor growth stimulatory or inhibitory activity of the KcAng(1-7) was evaluated by determination of tumor volumes (TV). During the study, tumor volumes and body weight were measured twice a week, and the ratio of the mean tumor volumes between the compound-treated group and the vehicle-treated group (T/C) was calculated.
Tumor volume=(tumor width)×(tumor width)×(tumor length)+2
T/C=T÷C • T: Mean estimated tumor volume of the compound-treated group • C: Mean estimated tumor volume of the vehicle-treated group

[2] = system: U251MG glioblastoma CDX; assay: Tumor hemoglobin level (indirect angiogenesis) in U251MG CDX; type: in vivo, cd1 nu/nu mice (human GBM cell line); details: KcAng(1-7) 1 μg/kg/d, Losartan 20 mg/kg/d, or both
Procedure: Efficacy of treatment was evaluated by: […] In brief, tumors were homogenized in double-distilled water. Eighty microliters of homogenates were mixed with 1 mL of Drabkin's solution and incubated for 15 min at room temperature. After centrifugation at 400×g for 5 min, the supernatants were subjected to absorbance measurement at 540 nm. The absorption, which is proportional to hemoglobin concentration, was divided by tumor weight. Effect of KcAng(1-7) and Losartan against heterotopic U251MG cell culture-based xenografts (CDX) in mice. Animals were treated either with vehicle, treated with 20 mg/kg/d Losartan, treated with 1 μ[…](1-7) or treated with a combination of KcAng(1-7) and with Losartan.

[3] = Gr. B 0.2 μg/kg/d s.c., Day 11 (Meas. 1)
[4] = Gr. B 0.2 μg/kg/d s.c., Day 14 (Meas. 2)
[5] = Gr. B 0.2 μg/kg/d s.c., Day 18 (Meas. 3)
[6] = Gr. B 0.2 μg/kg/d s.c., Day 21 (Meas. 4)
[7] = Gr. B 0.2 μg/kg/d s.c., Day 25 (Meas. 5)
[8] = Gr. B 0.2 μg/kg/d s.c., Day 28 (Meas. 6)
[9] = Gr. C 30 μg/kg/d s.c., Day 11 (Meas. 1)
[10] = Gr. C 30 μg/kg/d s.c., Day 14 (Meas. 2)
[11] = Gr. C 30 μg/kg/d s.c., Day 18 (Meas. 3)
[12] = Gr. C 30 μg/kg/d s.c., Day 21 (Meas. 4)
[13] = Gr. C 30 μg/kg/d s.c., Day 25 (Meas. 5)
[14] = Gr. C 30 μg/kg/d s.c., Day 28 (Meas. 6)

Lys-Asp-Arg-Val-Abu/Ala-Ile-His-Abu/Ala (KDRVAIHA; not fully specified; cyclic thioether (Abu/Ala bridge); VARIANT (5)..(5) /replace=“Abu”; VARIANT (8)..(8) /replace=“Abu”; SITE (1)..(8) /note=“Variant residues given in the sequence have no preference with respect to those in the annotations for variant positions”) [KcAng(1-7)]
optT/C ([1]; 0.2 μg/kg): 68.2%
optT/C ([1]; 30 μg/kg): 71.9%
effect on tumor growth ([1]; 0.2 and 30 μg/kg, 19 days): moderate but significant decrease in tumor growth
RTV Mean [1, 3]: 1
RTV Median [1, 3]: 1
T/C [1, 3]: 100.1%
Tumor Vol. Mean [1, 3]: 0.112 cm^3
Tumor Vol. Median [1, 3]: 0.109 cm^3
RTV Mean [1, 4]: 1.7
RTV Median [1, 4]: 1.8
T/C [1, 4]: 88.4%
Tumor Vol. Mean [1, 4]: 0.187 cm^3
Tumor Vol. Median [1, 4]: 0.19 cm^3
RTV Mean [1, 5]: 3.3
RTV Median [1, 5]: 3.4
T/C [1, 5]: 75.1%
Tumor Vol. Mean [1, 5]: 0.373 cm^3
Tumor Vol. Median [1, 5]: 0.412 cm^3
RTV Mean [1, 6]: 4.2
RTV Median [1, 6]: 4.3
T/C [1, 6]: 75.3%
Tumor Vol. Mean [1, 6]: 0.473 cm^3
Tumor Vol. Median [1, 6]: 0.454 cm^3
RTV Mean [1, 7]: 5.7
RTV Median [1, 7]: 5.6
T/C [1, 7]: 71%
Tumor Vol. Mean [1, 7]: 0.643 cm^3
Tumor Vol. Median [1, 7]: 0.625 cm^3
RTV Mean [1, 8]: 7.6
RTV Median [1, 8]: 8.1
T/C [1, 8]: 68.2%
Tumor Vol. Mean [1, 8]: 0.844 cm^3
Tumor Vol. Median [1, 8]: 0.808 cm^3
RTV Mean [1, 9]: 1
RTV Median [1, 9]: 1
T/C [1, 9]: 99.7%
Tumor Vol. Mean [1, 9]: 0.112 cm^3
Tumor Vol. Median [1, 9]: 0.099 cm^3
RTV Mean [1, 10]: 1.6
RTV Median [1, 10]: 1.6
T/C [1, 10]: 85.1%
Tumor Vol. Mean [1, 10]: 0.18 cm^3
Tumor Vol. Median [1, 10]: 0.168 cm^3
RTV Mean [1, 11]: 3.2
RTV Median [1, 11]: 3.1
T/C [1, 11]: 71.9%
Tumor Vol. Mean [1, 11]: 0.357 cm^3
Tumor Vol. Median [1, 11]: 0.376 cm^3
RTV Mean [1, 12]: 4.3
RTV Median [1, 12]: 4.1
T/C [1, 12]: 75.1%
Tumor Vol. Mean [1, 12]: 0.472 cm^3
Tumor Vol. Median [1, 12]: 0.509 cm^3
RTV Mean [1, 13]: 6.1
RTV Median [1, 13]: 5.9
T/C [1, 13]: 75.3%
Tumor Vol. Mean [1, 13]: 0.682 cm^3
Tumor Vol. Median [1, 13]: 0.719 cm^3
RTV Mean [1, 14]: 8.2
RTV Median [1, 14]: 8.2
T/C [1, 14]: 73.7%
Tumor Vol. Mean [1, 14]: 0.912 cm^3
Tumor Vol. Median [1, 14]: 0.991 cm^3
Tumor hemoglobin level, mean (± SEM) [2]: 18.7 ± 2.1 mg Hb/g of tissue
